The source of these data is US20240208963A1, “CRYSTALLINE MELANOCORTIN SUBTYPE-2 RECEPTOR (MC2R) ANTAGONIST” (Crinetics Pharmaceuticals, Inc., priority 2022, published 2024).

Values after ≈ are worked out from the molar mass of the structure shown. “Also recorded” adds a separate entry of the source. Counter-ions that a name gives are not always drawn. Like-named read-outs stand apart in the source and are kept apart here. Marks after values point to notes of the source that are not given here. Bounds are passed on as bounds.

Series [1] in a line: Solubility of solid state forms in solvents (gravimetric or solvent addition). It is filed as physicochemical. As to the method:
The solubility of certain solid state forms of Compound I was determined in various solvents by either gravimetric solubility or solvent addition.
About 25 mg of compound was weighed into vials. Approximately 5 vol. (0.125 mL) of solvent was added to the solids and the mixtures stirred at the designated temperature (RT or 50° C.). Solutions were noted and an additional 0.125 mL of solvent was added to the slurries. […] If a thicker slurry was noted, 0.25 mL of solvent was added (total volume 0.5 mL). If a thick slurry was again noted, an additional 0.25 mL of solvent was added (total volume 0.75 mL). After stirring for 2 days, the slurries were centrifuged, the supernatant was collected into preweighed vials, and the solvent evaporated at 50° C. (ambient pressure) without stirring. The vials containing the solid residues were dried in a vacuum oven at 50 C, 10^−2-10^−1 Torr, for 3 h before weighing again to determine the mass of solid that was dissolved in the supernatant (i.e. mg solid/mL solvent).
About 20 mg of compound was weighed into vials. Solvent was added in aliquots and stirred at the designated temperature until complete dissolution was observed. This measurement gave a solubility range.

A short description of series [2]: Salt screening XRPD stages: drying and overnight humidity exposure. The settings on record: for Form stability upon drying (XRPD): dried under vacuum at 50° C. for at least 3 h.
Procedure: XRPD analysis is typically done in three stages: 1) Wet: XRPD of the wet cake is done for all samples whenever solids appropriate for sampling were observed. 2) Dry: Unique solids are then left on XRPD plates and dried under vacuum at 50° C. for at least 3 h. XRPD of unique dry solids are then collected. 3) Humid: Solids are then exposed to >95% relative humidity overnight and XRPD on resulting solids is collected. The humid environment is generated by placing a beaker of saturated potassium sulfate in water in a sealed container. This procedure is not carried out for any amorphous solids obtained. All XRPD patterns are compared to counter ion XRPD patterns and known free molecule patterns.
A qualitive humidity exposure test was performed by exposing approximately 10 mg of the maleate to 80% RH overnight.
A short description of series [3]: Form stability at ambient conditions for one week (XRPD). In kind it is physicochemical. The settings on record: maleate. An excerpt:
Some of the samples generated in the antisolvent crystallization experiments were mixtures of Pattern B, Pattern C, and Pattern D. These samples were left at ambient conditions for one week, then analyzed again by XRPD.
Pure Pattern B was generated in the antisolvent crystallization with MIBK and heptane. […] The solids were scraped from the XRPD plate and used for simultaneous TGA/DSC analysis. […] After the solids required for the TGA/DSC analysis were transferred to the pan, the remainder of the solids were re-pressed to the XRPD sample plate and analyzed again.

A short description of series [4]: Dynamic vapor sorption (DVS). It is filed as physicochemical. As for the experimental part: DVS was performed using a DVS Intrinsic 1. The sample (20-25 mg) was loaded into a sample pan, suspended from a microbalance and exposed to a humidified stream of nitrogen gas. The sample was held for a minimum of 5 min at each level and only progressed to the next humidity level if there was <0.002% change in weight between measurements (interval: 60 s) or 240 min had elapsed. The following program was used: • 1. Equilibration at 50% RH • 2. 50% to 2%. (50%, 40%, 30%, 20%, 10%, and 2%) • 3. 2% to 95% (2%, 10%, 20%, 30%, 40%, 50%, 60%, 70%, 80%, 90%, and 95%) • 4. 95% to 2% (95%, 80%, 70%, 60%, 50%, 40%, 30%, 20%, 10%, and 2%) • 5. 2% to 50% (2%, 10%, 20%, 30%, 40%, and 50%)

Series [5] can be described thus: Stability of crystalline forms at 40° C. and 75% relative humidity (XRPD, HPLC purity).
Procedure: Approximately 10 mg of the Crystalline Pattern D of Compound I Maleate, 20 mg of the Crystalline Pattern C of Compound I Maleate, and 10 mg of the Crystalline Pattern E of Compound I Mandelate were weighed into open 4 mL vials that were placed into a 20 mL vial containing a saturated NaCl solution. The vial was sealed and kept at 40° C. for 7 days, creating an atmosphere at 75% relative humidity in the system. After 7 days, the materials were sampled and plated for XRPD analysis.
The stability test was repeated on Patterns C and D of Compound I Maleate for 11 days.
Series [6] is described as follows: Solubility in simulated fluids and water. It is filed as physicochemical. The conditions noted are these: 37° C., 30 min. As for the experimental part:
Calibration samples for solubility in simulated fluids were prepared with freebase Compound I.
Solubility in simulated fluids were studied with the mandelate and maleate solids. The simulated fluids FaSSIF (fasted-state intestinal), FaSSGF (fasted-state gastric), and FeSSIF (fed-state intestinal) were removed from the refrigerator, warmed to room temperature, and the pH of each was measured. Between 1.9 and 2.0 mg of each salt was weighed into four vials and 1 mL of each fluid was added, including water. Stir bars (10 mm) were added to the vials and the vials were stirred at 37° C. After 30 mi (mandelate samples) or 1 h (maleate samples), the pH of each solution was measured, then 400 μL of each was removed and syringe filtered with 0.45 µm syringe filters. Approximately 300 μL of the recovered filtrate was diluted 5× with diluent and injected for HPLC analysis. The remainder of the samples in the vials were allowed to stir overnight. After 24 h stirring at 37° C., samples were filtered and diluted as before, and injected for analysis.

The mark [7] stands for this setting: 40° C., 75% relative humidity, 7 days.

With `CCOc1ccccc1-c1ccc(N2CCN(C(=O)C3(C(F)(F)F)CCC3)C[C@H]2CC)c(C(=O)N[C@@H]2CN3CCC2CC3)n1` [Compound I Maleate, N-[(3S)-1-azabicyclo[2.2.2]octan-3-yl]-6-(2-ethoxyphenyl)-3-[(2R)-2-ethyl-4-[1-(trifluoromethyl)-cyclobutanecarbonyl]piperazin-1-yl]pyridine-2-carboxamide maleate], the solubility in series [1] (EtOAc, 50° C., maleate) is reported as 34 mg/mL; in series [1] (EtOAc, RT, maleate), 21 mg/mL; in series [1] (EtOH, RT, maleate) it was >200 mg/mL; in series [1] (IPAc, 50° C., maleate), 13 mg/mL; in series [1] (IPAc, RT, maleate), 8 mg/mL; in series [1] (MEK, RT, maleate), >200 mg/mL. For the same molecule, the solubility is reported as 71 mg/mL in series [1] (MIBK, 50° C., maleate); 49 mg/mL in series [1] (MIBK, RT, maleate); >200 mg/mL in series [1] (MeOH, RT, maleate); 4 mg/mL in series [1] (MtBE, 50° C., maleate); 4 mg/mL in series [1] (MtBE, RT, maleate); >200 mg/mL in series [1] (THF, RT, maleate). Further, the solubility was >200 mg/mL in series [1] (acetone, RT, maleate); 3 mg/mL in series [1] (cyclohexane, 50 °C, organic solvent or mixture, thermodynamic from solid, cyclohexane, 50° C., read-out: Solubility); < 3 mg/mL in series [1] (cyclohexane, organic solvent or mixture, thermodynamic from solid, cyclohexane, RT, read-out: Solubility); 3 mg/mL in series [1] (n-heptane, 50° C., maleate); <3 mg/mL in series [1] (n-heptane, RT, maleate). Also, in series [2] (80% RH overnight, approximately 10 mg), the “Mass gain in qualitative humidity exposure test” value was “No detectable mass gain”.

In the case of `CCOc1ccccc1-c1ccc(N2CCN(C(=O)C3(C(F)(F)F)CCC3)C[C@H]2CC)c(C(=O)N[C@@H]2CN3CCC2CC3)n1` [Compound I, N-[(3S)-1-azabicyclo[2.2.2]octan-3-yl]-6-(2-ethoxyphenyl)-3-[(2R)-2-ethyl-4-[1-(trifluoromethyl)-cyclobutanecarbonyl]piperazin-1-yl]pyridine-2-carboxamide], the solubility was >500^a mg/mL in series [1] (EtOAc, RT, listed as Amorphous free base); >500^a mg/mL in series [1] (EtOH, RT, listed as Amorphous free base); 167 to 250 mg/mL (≈ 272 to 407 mM) in series [1] (IPA:water (1:1 vol.), aqueous with cosolvent or surfactant or cyclodextrin, thermodynamic from solid, IPA:water (1:1 vol.), RT, read-out: Solubility); >500^a mg/mL in series [1] (MIBK, RT, listed as Amorphous free base); >500^a mg/mL in series [1] (MtBE, RT, listed as Amorphous free base); >500^a mg/mL in series [1] (acetone, RT, listed as Amorphous free base). Further, the solubility in series [1] (n-heptane, RT, listed as Amorphous free base) was <26 mg/mL; in series [1] (toluene, organic solvent or mixture, thermodynamic from solid, toluene, RT, read-out: Solubility), > 500 mg/mL. Also, the “Solubility (in words)” value in series [1] (all solvents tested except heptane and IPA:water (1:1 vol.)) is “freely soluble”; in series [1] (heptane) it was “low solubility”.

For the molecule `CCOc1ccccc1-c1ccc(N2CCN(C(=O)C3(C(F)(F)F)CCC3)C[C@H]2CC)c(C(=O)N[C@@H]2CN3CCC2CC3)n1.O=C(O)/C=C\C(=O)O` [Pattern B, N-[(3S)-1-azabicyclo[2.2.2]octan-3-yl]-6-(2-ethoxyphenyl)-3-[(2R)-2-ethyl-4-[1-(trifluoromethyl)-cyclobutanecarbonyl]piperazin-1-yl]pyridine-2-carboxamide maleate], the “Form conversion by XRPD at ambient conditions” value in series [3] is given as “converted to Pattern C; also recorded: some low intensity peaks associated with Pattern C”. In addition, the “Form stability upon drying (XRPD)” value in series [2] is reported as “mostly converts to Pattern C”.

Take “N-[(3S)-1-azabicyclo[2.2.2]octan-3-yl]-6-(2-ethoxyphenyl)-3-[(2R)-2-ethyl-4-[1-(trifluoromethyl)-cyclobutanecarbonyl]piperazin-1-yl]pyridine-2-carboxamide mandelate [mandelate Pattern E]”: in series [4] (DVS), the “Hygroscopicity (in words)” value was “moderately hygroscopic”. Further, the “Change by XRPD following the DVS analysis” value in series [4] (after DVS from 2 to 95% RH) is recorded as “No change”. For the same molecule, the “Reversible mass gain (DVS)” value in series [4] (from 2 to 95% relative humidity) came out at 5.68 wt. %. The “Behaviour at high humidity” value in series [4] (high humidity) is recorded as “began to convert to amorphous”. Moreover, the “Change by XRPD after storage” value in series [5] (setting [7]) is reported as “No visible change”. In series [5] (setting [7]), the “Degradation by HPLC purity analysis after storage” value was “no degradation”. In addition, in series [5] (over a week at 40° C. and 75% RH), the “Stability on storage (in words)” value is given as “stable”. Besides, the “Stability after humidity exposure (XRPD, deliquescence)” value in series [2] (>90% relative humidity overnight) is reported as “no deliquescence or loss of crystallinity”. For the same molecule, in series [2], the “Form stability upon drying (XRPD)” value is listed as “stable”. Besides, the “Sample pH” value is 1.53 in series [6] (FaSSGF (initial pH 1.49)), 6.41 in series [6] (FaSSIF (initial pH 6.35)) and 4.89 in series [6] (FeSSIF (initial pH 4.83)).

The term solubility denotes how much of the substance goes into solution per volume.
